Measurements published in patent US11427553B2, “Dihydrooxadiazinones” (Bayer Aktiengesellschaft, priority 2017, dated 2022).

Key:
HMCB cells = assay: Assay 1 cell proliferation measurement, HMCB; assay type: cell-based; conditions: Homo sapiens, Melanoma, read-out: Anti-proliferation IC50 [nM] HMCB
NCI-H1734 cells = assay: Assay 1 cell proliferation measurement, NCI-H1734; assay type: cell-based; conditions: Homo sapiens, Lung, read-out: Anti-proliferation IC50 [nM] NCI-H1734
HeLa cells = assay: Assay 1 cell proliferation measurement (CTG, 72 h), HeLa; assay type: cell-based, human; conditions: Homo sapiens, HeLa; Assay 1, 72 h, Cell Titer Glo; read-out: HeLa IC50 [nM] (Cervical cancer)
Summary of the method: (§1)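 Cells were plated, grown overnight at 37 °C, then treated 72 h with a 10-step 2.5-fold dilution series from 100 nM maximum final (0.3% DMSO vehicle). Viability was read by CellTiter-Glo luminescence. IC50 from a 4-parameter fit, normalised to a 0 h plate (maximum inhibition) and DMSO control (minimum inhibition).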

SK-MEL-3 cells = assay: Assay 1 cell proliferation measurement (CTG, 72 h), SK-MEL-3; assay type: cell-based, human; conditions: Homo sapiens, SK-MEL3; Assay 1, 72 h, Cell Titer Glo; read-out: SK-MEL-3 IC50 [nM] (melanoma)
Summary of the method: as §1

human full length PDE3B = human full length PDE3B (Homo sapiens (Human), UniProt Q13370); assay: Assay 5 PDE3B enzyme inhibition (3H-cAMP SPA); assay type: biochemical; conditions: Sf9 cell extract
Summary of the method: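 Hydrolysis of tritiated cAMP by Sf9-expressed full-length human PDE3B proceeded 60 min at room temperature in Tris buffer pH 7.5 containing Mg2+, EDTA and BSA, with enzyme dilution keeping substrate consumption below 70%. IC50 derived from percent activity versus log compound concentration.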

[1] = Assay 6 in vitro metabolic stability in cryopreserved human hepatocytes (CL, Fmax); assay type: in vitro ADME; conditions: 1 μM test compound; for Clblood: hepatic in vivo blood clearance calculated (well-stirred) from half-life in cryopreserved human hepatocytes; for Fmax: maximal oral bioavailability calculated from half-life in cryopreserved human hepatocytes
Description: Assay 6 Method for Human Cryo Hepatocytes:
Investigation of In Vitro Metabolic Stability in Cryopreserved Human Hepatocytes (Including Calculation of Hepatic In Vivo Blood Clearance (CL) and Maximal Oral Bioavailability (Fmax))
Cryopreserved Hepatocytes (e.g. purchased from Celsis InVitroTechnologies) were briefly thawed, washed with 45 mL pre-warmed in in vitro GRO HT medium and centrifuged for 5 min at 50×g. The cell pellet was resuspended in 5 ml of Krebs-Henseleit […] (KHB). Cell viability was determined by trypan blue exclusion.
For the metabolic stability assay liver cells were distributed in WME containing 5% FCS to glass vials at a density of 1.0×10^6 vital cells/ml. The test compound was added to a final concentration of 1 μM. During incubation, the hepatocyte suspensions were continuously shaken at 580 rpm and aliquots were taken at 2, 8, 16, 30, 45 and 90 min, to which equal volumes of cold methanol were immediately added. Samples were frozen at −20° C. over night, after subsequently centrifuged for 15 minutes at 3000 rpm and the supernatant was analyzed with an Agilent 1290 HPLC-system with LCMS/MS detection.
The half-life of a test compound was determined from the concentration-time plot. From the half-life the intrinsic clearances were calculated. Together with the additional parameters liver blood flow, amount of liver cells in vivo and in vitro. The hepatic in vivo blood clearance (CL) and the maximal oral bioavailability (Fmax) was calculated.

IGR-1 cells = assay: Assay 1 cell proliferation measurement, IGR-1; assay type: cell-based; conditions: Homo sapiens, Melanoma, read-out: Anti-proliferation IC50 [nM] IGR-1
H4 cells = assay: Assay 1 cell proliferation measurement, H4; assay type: cell-based; conditions: Homo sapiens; Astrocytoma; read-out: Anti-proliferation IC50 [nM] H4
HEL 92.1.7 cells = assay: Assay 1 cell proliferation measurement, HEL 92.1.7; assay type: cell-based; conditions: Homo sapiens, Erythroleukemia, read-out: Anti-proliferation IC50 [nM] HEL 92.1.7
human full length PDE3A = human full length PDE3A (Homo sapiens (Human), UniProt Q14432); assay: Assay 4 PDE3A enzyme inhibition (3H-cAMP SPA); assay type: biochemical; conditions: Sf9 cell extract
Summary of the method: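 Hydrolysis of [8-3H]cAMP by Sf9-expressed full-length PDE3A was measured by scintillation proximity, with enzyme diluted to keep kinetics linear and substrate consumption below 70%. Incubation ran 60 min at room temperature at pH 7.5.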

IGR37 cells = assay: Assay 1 cell proliferation measurement (CTG, 72 h), IGR37; assay type: cell-based; conditions: Homo sapiens, IGR-37, Cell Titer Glo, read-out: IGR37 IC50 [nM] (melanoma)
PA-1 cells = assay: Assay 1 cell proliferation measurement, PA-1; assay type: cell-based; conditions: Homo sapiens, Ovarian teratocarcinoma, read-out: Anti-proliferation IC50 [nM] PA-1
DBTRG-05-MG cells = assay: Assay 1 cell proliferation measurement, DBTRG-05-MG; assay type: cell-based; conditions: Homo sapiens, Glioblastoma, read-out: Anti-proliferation IC50 [nM] DBTRG-05-MG
Hs 578T cells = assay: Assay 1 cell proliferation measurement, Hs 578T; assay type: cell-based; conditions: Homo sapiens, Breast, read-out: Anti-proliferation IC50 [nM] Hs 578T
A-2058 cells = assay: Assay 1 cell proliferation measurement, A-2058; assay type: cell-based; conditions: Homo sapiens, A2058; Melanoma; read-out: Anti-proliferation IC50 [nM] A-2058
DK-MG cells = assay: Assay 1 cell proliferation measurement, DK-MG; assay type: cell-based; conditions: Homo sapiens; Glioblastoma; read-out: Anti-proliferation IC50 [nM] DK-MG
CHL-1 cells = assay: Assay 1 cell proliferation measurement, CHL-1; assay type: cell-based; conditions: Homo sapiens, Melanoma, read-out: Anti-proliferation IC50 [nM] CHL-1

Chain of human full length PDE3A (Q14432 whole entry): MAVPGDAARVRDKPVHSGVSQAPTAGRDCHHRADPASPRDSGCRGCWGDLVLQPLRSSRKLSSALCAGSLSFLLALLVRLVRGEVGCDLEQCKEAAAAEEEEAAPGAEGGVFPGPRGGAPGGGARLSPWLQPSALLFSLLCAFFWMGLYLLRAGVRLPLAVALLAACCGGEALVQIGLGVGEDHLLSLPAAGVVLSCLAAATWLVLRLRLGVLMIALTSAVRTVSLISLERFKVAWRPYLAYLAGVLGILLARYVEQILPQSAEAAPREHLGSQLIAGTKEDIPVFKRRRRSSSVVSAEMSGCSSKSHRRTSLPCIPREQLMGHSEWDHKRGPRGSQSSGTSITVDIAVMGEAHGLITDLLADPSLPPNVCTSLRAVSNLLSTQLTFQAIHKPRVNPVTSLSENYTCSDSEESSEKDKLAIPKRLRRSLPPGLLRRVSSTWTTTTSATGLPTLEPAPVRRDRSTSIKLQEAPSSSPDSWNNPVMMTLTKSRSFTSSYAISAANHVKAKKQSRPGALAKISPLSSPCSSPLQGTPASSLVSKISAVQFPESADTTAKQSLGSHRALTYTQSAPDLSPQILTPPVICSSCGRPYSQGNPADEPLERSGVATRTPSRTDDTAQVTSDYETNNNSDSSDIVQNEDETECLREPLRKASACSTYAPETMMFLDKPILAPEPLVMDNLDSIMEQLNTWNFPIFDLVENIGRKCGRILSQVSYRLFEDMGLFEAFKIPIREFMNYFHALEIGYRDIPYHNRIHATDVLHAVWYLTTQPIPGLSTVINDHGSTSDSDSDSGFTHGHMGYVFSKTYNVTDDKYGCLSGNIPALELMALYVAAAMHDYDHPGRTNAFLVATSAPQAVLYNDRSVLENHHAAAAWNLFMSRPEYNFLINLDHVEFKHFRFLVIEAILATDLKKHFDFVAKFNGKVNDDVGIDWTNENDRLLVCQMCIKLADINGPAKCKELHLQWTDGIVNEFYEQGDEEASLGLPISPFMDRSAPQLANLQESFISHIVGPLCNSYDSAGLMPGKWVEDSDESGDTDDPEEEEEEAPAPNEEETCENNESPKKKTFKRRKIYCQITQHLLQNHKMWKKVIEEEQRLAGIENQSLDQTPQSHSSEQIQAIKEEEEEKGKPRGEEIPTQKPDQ
Chain of human full length PDE3B (Q13370 whole entry): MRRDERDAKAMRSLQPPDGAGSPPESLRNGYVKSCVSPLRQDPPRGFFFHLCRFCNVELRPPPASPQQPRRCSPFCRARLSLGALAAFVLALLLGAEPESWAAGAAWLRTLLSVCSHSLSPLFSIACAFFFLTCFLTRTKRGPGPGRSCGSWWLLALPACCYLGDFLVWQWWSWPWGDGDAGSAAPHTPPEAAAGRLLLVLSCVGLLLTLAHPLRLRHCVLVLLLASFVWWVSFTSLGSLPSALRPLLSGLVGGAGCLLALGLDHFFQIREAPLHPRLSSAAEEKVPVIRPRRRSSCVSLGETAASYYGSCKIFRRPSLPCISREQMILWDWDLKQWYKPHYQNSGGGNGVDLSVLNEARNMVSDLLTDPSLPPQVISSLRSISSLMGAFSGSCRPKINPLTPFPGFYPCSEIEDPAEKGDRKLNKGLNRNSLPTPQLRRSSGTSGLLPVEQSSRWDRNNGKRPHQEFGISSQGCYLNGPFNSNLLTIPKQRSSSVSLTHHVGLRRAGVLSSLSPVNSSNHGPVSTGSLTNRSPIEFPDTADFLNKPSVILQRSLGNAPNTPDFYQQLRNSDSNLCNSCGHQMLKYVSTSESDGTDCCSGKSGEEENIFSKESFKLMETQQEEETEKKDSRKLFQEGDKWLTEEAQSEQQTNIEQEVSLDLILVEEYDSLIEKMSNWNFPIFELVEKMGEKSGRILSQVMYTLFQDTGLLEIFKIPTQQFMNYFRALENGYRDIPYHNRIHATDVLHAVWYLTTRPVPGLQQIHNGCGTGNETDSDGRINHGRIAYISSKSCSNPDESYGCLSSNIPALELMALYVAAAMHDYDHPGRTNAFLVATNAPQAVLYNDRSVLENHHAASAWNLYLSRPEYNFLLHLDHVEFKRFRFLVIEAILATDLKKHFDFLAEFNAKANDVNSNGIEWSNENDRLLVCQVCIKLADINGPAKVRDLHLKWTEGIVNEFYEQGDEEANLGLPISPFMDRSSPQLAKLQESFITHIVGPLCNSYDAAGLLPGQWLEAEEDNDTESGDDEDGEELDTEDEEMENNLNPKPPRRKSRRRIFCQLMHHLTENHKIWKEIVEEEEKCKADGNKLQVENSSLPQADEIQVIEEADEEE

## O=C1NN=C(c2ccc(N3CCC(F)(F)CC3)c(F)c2)CO1 [Example 1, 5-[4-(4,4-Difluoropiperidin-1-yl)-3-fluorophenyl]-3,6-dihydro-2H-1,3,4-oxadiazin-2-one]
HMCB cells
  IC50: 19 nM
NCI-H1734 cells
  IC50: 19 nM
HeLa cells
  IC50: 2 nM
SK-MEL-3 cells
  IC50: 3 nM
Human full length PDE3B
  IC50: 173 nM
[1]
  Clblood: 4 mL/min/kg
  Fmax: 82%
IGR-1 cells
  IC50: 89 nM
H4 cells
  IC50: 30 nM
HEL 92.1.7 cells
  IC50: 20 nM
Human full length PDE3A
  IC50: 275 nM

## O=C1NN=C(c2ccc(N3CCOCC3)c(F)c2)CO1 [Example 4, 5-[3-Fluoro-4-(morpholin-4-yl)phenyl]-3,6-dihydro-2H-1,3,4-oxadiazin-2-one]
NCI-H1734 cells
  IC50: 40 nM
HeLa cells
  IC50: 7 nM
SK-MEL-3 cells
  IC50: 16 nM
Human full length PDE3B
  IC50: 154 nM
[1]
  Clblood: <0.17 mL/min/kg
  Fmax: 100%
H4 cells
  IC50: 47 nM
Human full length PDE3A
  IC50: 203 nM

## Cc1cc(C2=NNC(=O)OC2)ccc1-c1ccc(F)cc1 [Example 7, 5-(4′-Fluoro-2-methylbiphenyl-4-yl)-3,6-dihydro-2H-1,3,4-oxadiazin-2-one]
NCI-H1734 cells
  IC50: 26 nM
HeLa cells
  IC50: 5 nM
SK-MEL-3 cells
  IC50: 13 nM
Human full length PDE3B
  IC50: 170 nM
[1]
  Clblood: 5.5 mL/min/kg
  Fmax: 75%
H4 cells
  IC50: 44 nM
Human full length PDE3A
  IC50: 220 nM

## Cc1cc(C2=NNC(=O)OC2)ccc1-c1ccc(F)c(F)c1 [Example 8, 5-(3′,4′-Difluoro-2-methylbiphenyl-4-yl)-3,6-dihydro-2H-1,3,4-oxadiazin-2-one]
NCI-H1734 cells
  IC50: 42 nM
HeLa cells
  IC50: 6 nM
SK-MEL-3 cells
  IC50: 18 nM
IGR37 cells
  IC50: 16 nM
Human full length PDE3B
  IC50: 243 nM
H4 cells
  IC50: 50 nM
Human full length PDE3A
  IC50: 210 nM

## O=C1NN=C(c2ccc(-c3ccc(C(F)F)cc3)c(F)c2)CO1 [Example 92, 5-[4′-(Difluoromethyl)-2-fluoro[1,1′-biphenyl]-4-yl]-3,6-dihydro-2H-1,3,4-oxadiazin-2-one]
PA-1 cells
  IC50: 17 nM
DBTRG-05-MG cells
  IC50: 18 nM
Hs 578T cells
  IC50: 31 nM
HeLa cells
  IC50: 2 nM
A-2058 cells
  IC50: 18 nM
SK-MEL-3 cells
  IC50: 4 nM
IGR37 cells
  IC50: 4 nM
DK-MG cells
  IC50: 17 nM
CHL-1 cells
  IC50: 11 nM
Human full length PDE3B
  IC50: 130 nM
HEL 92.1.7 cells
  IC50: 9 nM
Human full length PDE3A
  IC50: 68 nM

## C[C@@H]1OC(=O)NN=C1c1cc(Cl)c(N2CCOCC2)c(C(F)(F)F)c1 [Example 121, (6S)-5-(-[(3-Chloro-4-(morpholin-4-yl)-5-(trifluoromethyl)phenyl)-)]-6-methyl-3,6-dihydro-2H-1,3,4-oxadiazin-2-one]
HeLa cells
  IC50: 5 nM
SK-MEL-3 cells
  IC50: 10 nM
IGR37 cells
  IC50: 12 nM
Human full length PDE3B
  IC50: 299 nM
[1]
  Clblood: 2.17 mL/min/kg
  Fmax: 90%
Human full length PDE3A
  IC50: 150 nM

## Cc1ccc(C2=NNC(=O)OC2)cc1C(F)(F)F [Example 139, 5-[4-Methyl-3-(trifluoromethyl)phenyl]-3,6-dihydro-2H-1,3,4-oxadiazin-2-one]
PA-1 cells
  IC50: > 100 nM
DBTRG-05-MG cells
  IC50: > 100 nM
Hs 578T cells
  IC50: > 100 nM
HeLa cells
  IC50: 14 nM
A-2058 cells
  IC50: > 100 nM
SK-MEL-3 cells
  IC50: 29 nM
IGR37 cells
  IC50: 40 nM
DK-MG cells
  IC50: 61 nM
CHL-1 cells
  IC50: 58 nM
Human full length PDE3B
  IC50: 310 nM
HEL 92.1.7 cells
  IC50: > 100 nM
Human full length PDE3A
  IC50: 140 nM

## O=C1NN=C(c2ccc(-c3ccccc3C(F)F)c(F)c2)CO1 [Example 161, 5-[2′-(Difluoromethyl)-2-fluoro[1,1′-biphenyl]-4-yl]-3,6-dihydro-2H-1,3,4-oxadiazin-2-one]
HeLa cells
  IC50: 6 nM
SK-MEL-3 cells
  IC50: 10 nM
IGR37 cells
  IC50: 12 nM
Human full length PDE3B
  IC50: 49 nM
[1]
  Clblood: 9.17 mL/min/kg
  Fmax: 59%
Human full length PDE3A
  IC50: 66 nM

## C[C@@H]1OC(=O)NN=C1c1ccc(-c2ccnc(N)c2)c(C(F)(F)F)c1 [Example 165, (6S)-5-[4-(2-Aminopyridin-4-yl)-3-(trifluoromethyl)phenyl]-6-methyl-3,6-dihydro-2H-1,3,4-oxadiazin-2-one]
HeLa cells
  IC50: 1 nM
SK-MEL-3 cells
  IC50: 1 nM
IGR37 cells
  IC50: 1 nM
Human full length PDE3B
  IC50: 66 nM
[1]
  Clblood: 14.7 mL/min/kg
  Fmax: 33%
Human full length PDE3A
  IC50: 77 nM

## C[C@@H]1OC(=O)NN=C1c1ccc(-c2cnn(C(F)F)c2)c(C(F)(F)F)c1 [Example 190, (6S)-5-{4-[1-(Difluoromethyl)-1H-pyrazol-4-yl]-3-(trifluoromethyl)phenyl}-6-methyl-3,6-dihydro-2H-1,3,4-oxadiazin-2-one]
HeLa cells
  IC50: 0.2 nM
SK-MEL-3 cells
  IC50: 0.4 nM
IGR37 cells
  IC50: 0.4 nM
Human full length PDE3B
  IC50: 25 nM
[1]
  Clblood: 15 mL/min/kg
  Fmax: 32%
Human full length PDE3A
  IC50: 38 nM

## COCCCc1ccc(C2=NNC(=O)OC2)cc1C(F)(F)F [Example 267, 5-[4-(3-Methoxypropyl)-3-(trifluoromethyl)phenyl]-3,6-dihydro-2H-1,3,4-oxadiazin-2-one]
PA-1 cells
  IC50: 44 nM
DBTRG-05-MG cells
  IC50: 35 nM
Hs 578T cells
  IC50: 34 nM
HeLa cells
  IC50: 2 nM
A-2058 cells
  IC50: 40 nM
SK-MEL-3 cells
  IC50: 5 nM
IGR37 cells
  IC50: 7 nM
DK-MG cells
  IC50: 18 nM
CHL-1 cells
  IC50: 16 nM
Human full length PDE3B
  IC50: 185 nM
[1]
  Clblood: 4.5 mL/min/kg
  Fmax: 80%
HEL 92.1.7 cells
  IC50: 26 nM
Human full length PDE3A
  IC50: 145 nM

## CC(C)(C)CCc1ccc(C2=NNC(=O)OC2)cc1C(F)(F)F [Example 269, 5-[4-(3,3-Dimethylbutyl)-3-(trifluoromethyl)phenyl]-3,6-dihydro-2H-1,3,4-oxadiazin-2-one]
PA-1 cells
  IC50: 49 nM
DBTRG-05-MG cells
  IC50: 50 nM
Hs 578T cells
  IC50: 66 nM
HeLa cells
  IC50: 6 nM
A-2058 cells
  IC50: 61 nM
SK-MEL-3 cells
  IC50: 17 nM
IGR37 cells
  IC50: 24 nM
DK-MG cells
  IC50: 49 nM
CHL-1 cells
  IC50: 47 nM
Human full length PDE3B
  IC50: 790 nM
[1]
  Clblood: 6.83 mL/min/kg
  Fmax: 69%
HEL 92.1.7 cells
  IC50: 44 nM
Human full length PDE3A
  IC50: 695 nM

## C[C@@H]1OC(=O)NN=C1c1ccc(N2CCN(C)CC2)c(C(F)(F)F)c1 [Example 277, (6S)-6-Methyl-5-[4-(4-methylpiperazin-1-yl)-3-(trifluoromethyl)phenyl]-3,6-dihydro-2H-1,3,4-oxadiazin-2-one]
PA-1 cells
  IC50: > 100 nM
DBTRG-05-MG cells
  IC50: > 100 nM
Hs 578T cells
  IC50: > 100 nM
HeLa cells
  IC50: 0.3 nM
A-2058 cells
  IC50: > 100 nM
SK-MEL-3 cells
  IC50: 1 nM
IGR37 cells
  IC50: 1 nM
DK-MG cells
  IC50: > 100 nM
CHL-1 cells
  IC50: > 100 nM
Human full length PDE3B
  IC50: 87 nM
HEL 92.1.7 cells
  IC50: > 100 nM
Human full length PDE3A
  IC50: 100 nM
